*1 amine or outer side, *2 acyl side, *3 side chain or, on linkers, in order; H or OH if unused. Where a SMILES comes first, the peptide text is derived from it. Bridges are numbered along the chain shown (N, C = ends). [ ]: non-standard residue; d: D form. The star is where a group is joined. hPhe(3-Cl-4-CF3) = N[C@@H](CCc1ccc(C(F)(F)F)c(Cl)c1)C(=O)O; NPrPhe(4-CF3) = CCCN[C@@H](Cc1ccc(C(F)(F)F)cc1)C(=O)O; NEtPhe(4-CF3) = CCN[C@@H](Cc1ccc(C(F)(F)F)cc1)C(=O)O; hPhe(3,4-Cl2) = N[C@@H](CCc1ccc(Cl)c(Cl)c1)C(=O)O; X10 = CCCN([C@@H](Cc1ccc(F)cc1)C(=O)[*:2])[*:1]; X44 = CCCN([C@@H](Cc1ccccc1)C(=O)[*:2])[*:1]; NEtPhe(4-F) = CCN[C@@H](Cc1ccc(F)cc1)C(=O)O; NMePhe(4-F) = CN[C@@H](Cc1ccc(F)cc1)C(=O)O; NMeGly(cPent) = CN[C@H](C(=O)O)C1CCCC1; NEtPhe = CCN[C@@H](Cc1ccccc1)C(=O)O; NMeD = CN[C@@H](CC(=O)O)C(=O)O; NMeL = CN[C@@H](CC(C)C)C(=O)O; Ac6c = NC1(C(=O)O)CCCCC1; Morpholide = C1CN(*)CCO1; NMeA = CN[C@@H](C)C(=O)O; Ac5c = NC1(C(=O)O)CCCC1; Aze = O=C(O)[C@@H]1CCN1; Ac3c = NC1(C(=O)O)CC1; Aib = CC(C)(N)C(=O)O; Sar = CNCC(=O)O
Experiments:
[1] = molecular target: GDP-bound NRAS wild-type protein (Homo sapiens, UniProt P01111); assay: Binding to NRAS by surface plasmon resonance (SPR), Single Cycle Kinetics; details: KD ratio NRAS/KRAS, SPR
[2] = molecular target: GDP-bound HRAS wild-type protein (Homo sapiens, UniProt P01112); assay: Binding to HRAS by surface plasmon resonance (SPR), Single Cycle Kinetics; details: KD ratio HRAS/KRAS, SPR
GDP-bound HRAS wild-type protein, sequence (P01112 whole entry): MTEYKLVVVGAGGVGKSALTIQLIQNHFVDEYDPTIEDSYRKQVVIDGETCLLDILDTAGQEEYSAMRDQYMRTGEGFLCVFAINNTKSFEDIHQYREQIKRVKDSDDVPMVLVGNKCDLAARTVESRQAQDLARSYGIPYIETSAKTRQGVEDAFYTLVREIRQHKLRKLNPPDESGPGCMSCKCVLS

GDP-bound NRAS wild-type protein, sequence (P01111 whole entry): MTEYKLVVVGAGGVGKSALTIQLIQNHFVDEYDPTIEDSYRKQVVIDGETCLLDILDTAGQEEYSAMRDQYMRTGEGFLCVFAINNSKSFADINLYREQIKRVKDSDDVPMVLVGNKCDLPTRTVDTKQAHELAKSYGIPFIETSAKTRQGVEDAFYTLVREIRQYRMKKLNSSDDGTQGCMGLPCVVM

| Compound | NRAS/KRAS (ratio of KD for GDP-bound NRAS wild-type to KD for KRAS) [1] | HRAS/KRAS (ratio of KD for GDP-bound HRAS wild-type to KD for KRAS) [2] |
| --- | --- | --- |
| CC[C@H](C)[C@@H]1NC(=O)[C@H](CC(C)C)N(C)C(=O)C[C@@H](C(=O)N2CCOCC2)N(C)C(=O)[C@H](C2CCCC2)N(C)C(=O)C2(CCCC2)NC(=O)[C@@H]2CCCN2C(=O)[C@H](CCc2ccc(C(F)(F)F)c(Cl)c2)NC(=O)CN(C)C(=O)[C@H](Cc2ccc(F)cc2)N(C)C(=O)CN(C)C(=O)CN(C)C1=O [PP0212] ([NMeL]I[Sar][Sar][NMePhe(4-F)][Sar][hPhe(3-Cl-4-CF3)]P[Ac5c][NMeGly(cPent)][NMeD]-Morpholide; lactam N-11) | C (A compound having a KD ratio of 0.1 or more and less than 3 is denoted as C) | C (A compound having a KD ratio of 0.1 or more and less than 3 is denoted as C) |
| CC[C@H](C)[C@@H]1NC(=O)[C@H](CC(C)C)N(C)C(=O)C[C@@H](C(=O)N2CCOCC2)N(C)C(=O)[C@H](C2CCCC2)N(C)C(=O)C2(CCCC2)NC(=O)[C@@H]2CCCN2C(=O)[C@H](CCc2ccc(C(F)(F)F)c(Cl)c2)NC(=O)CN(C)C(=O)[C@H](Cc2ccc(F)cc2)N(CC)C(=O)CN(C)C(=O)CN(C)C1=O [PP0213] ([NMeL]I[Sar][Sar][NEtPhe(4-F)][Sar][hPhe(3-Cl-4-CF3)]P[Ac5c][NMeGly(cPent)][NMeD]-Morpholide; lactam N-11) | C (A compound having a KD ratio of 0.1 or more and less than 3 is denoted as C) | C (A compound having a KD ratio of 0.1 or more and less than 3 is denoted as C) |
| CCCN1C(=O)CN(C)C(=O)CN(C)C(=O)[C@H]([C@@H](C)CC)NC(=O)[C@H](CC(C)C)N(C)C(=O)C[C@@H](C(=O)N2CCOCC2)N(C)C(=O)[C@H](C2CCCC2)N(C)C(=O)C2(CCCC2)NC(=O)[C@@H]2CCCN2C(=O)[C@H](CCc2ccc(C(F)(F)F)c(Cl)c2)NC(=O)CN(C)C(=O)[C@@H]1Cc1ccc(F)cc1 [PP0214] ([NMeL]I[Sar][Sar][X10][Sar][hPhe(3-Cl-4-CF3)]P[Ac5c][NMeGly(cPent)][NMeD]-Morpholide; lactam N-11) | B (a compound having 3 or more and less than 10 is denoted as B) | C (A compound having a KD ratio of 0.1 or more and less than 3 is denoted as C) |
| CC[C@H](C)[C@@H]1NC(=O)[C@H](CC(C)C)N(C)C(=O)C[C@@H](C(=O)N2CCOCC2)N(C)C(=O)[C@H](C2CCCC2)N(C)C(=O)C2(CCCC2)NC(=O)[C@@H]2CCCN2C(=O)[C@H](CCc2ccc(C(F)(F)F)c(Cl)c2)NC(=O)CN(C)C(=O)[C@H](Cc2ccccc2)N(CC)C(=O)[C@@H]2CCN2C(=O)[C@H](C)N(C)C1=O [PP0215] ([NMeL]I[NMeA][Aze][NEtPhe][Sar][hPhe(3-Cl-4-CF3)]P[Ac5c][NMeGly(cPent)][NMeD]-Morpholide; lactam N-11) | C (A compound having a KD ratio of 0.1 or more and less than 3 is denoted as C) | C (A compound having a KD ratio of 0.1 or more and less than 3 is denoted as C) |
| CCCN1C(=O)[C@@H]2CCN2C(=O)[C@H](C)N(C)C(=O)[C@H]([C@@H](C)CC)NC(=O)[C@H](CC(C)C)N(C)C(=O)C[C@@H](C(=O)N2CCOCC2)N(C)C(=O)[C@H](C2CCCC2)N(C)C(=O)C2(CCCC2)NC(=O)[C@@H]2CCCN2C(=O)[C@H](CCc2ccc(C(F)(F)F)c(Cl)c2)NC(=O)CN(C)C(=O)[C@@H]1Cc1ccccc1 [PP0216] ([NMeL]I[NMeA][Aze][X44][Sar][hPhe(3-Cl-4-CF3)]P[Ac5c][NMeGly(cPent)][NMeD]-Morpholide; lactam N-11) | C (A compound having a KD ratio of 0.1 or more and less than 3 is denoted as C) | B (a compound having 3 or more and less than 10 is denoted as B) |
| CC[C@H](C)[C@@H]1NC(=O)[C@H](CC(C)C)N(C)C(=O)C[C@@H](C(=O)N2CCOCC2)N(C)C(=O)[C@H](C2CCCC2)N(C)C(=O)C2(CCCC2)NC(=O)[C@@H]2CCCN2C(=O)[C@H](CCc2ccc(C(F)(F)F)c(Cl)c2)NC(=O)CN(C)C(=O)[C@H](Cc2ccc(F)cc2)N(C)C(=O)[C@@H]2CCN2C(=O)[C@H](C)N(C)C1=O [PP0217] ([NMeL]I[NMeA][Aze][NMePhe(4-F)][Sar][hPhe(3-Cl-4-CF3)]P[Ac5c][NMeGly(cPent)][NMeD]-Morpholide; lactam N-11) | C (A compound having a KD ratio of 0.1 or more and less than 3 is denoted as C) | C (A compound having a KD ratio of 0.1 or more and less than 3 is denoted as C) |
| CC[C@H](C)[C@@H]1NC(=O)[C@H](CC(C)C)N(C)C(=O)C[C@@H](C(=O)N2CCOCC2)N(C)C(=O)[C@H](C2CCCC2)N(C)C(=O)C2(CCCC2)NC(=O)[C@@H]2CCCN2C(=O)[C@H](CCc2ccc(C(F)(F)F)c(Cl)c2)NC(=O)CN(C)C(=O)[C@H](Cc2ccc(F)cc2)N(CC)C(=O)[C@@H]2CCN2C(=O)[C@H](C)N(C)C1=O [PP0218] ([NMeL]I[NMeA][Aze][NEtPhe(4-F)][Sar][hPhe(3-Cl-4-CF3)]P[Ac5c][NMeGly(cPent)][NMeD]-Morpholide; lactam N-11) | C (A compound having a KD ratio of 0.1 or more and less than 3 is denoted as C) | C (A compound having a KD ratio of 0.1 or more and less than 3 is denoted as C) |
| CCCN1C(=O)[C@@H]2CCN2C(=O)[C@H](C)N(C)C(=O)[C@H]([C@@H](C)CC)NC(=O)[C@H](CC(C)C)N(C)C(=O)C[C@@H](C(=O)N2CCOCC2)N(C)C(=O)[C@H](C2CCCC2)N(C)C(=O)C2(CCCC2)NC(=O)[C@@H]2CCCN2C(=O)[C@H](CCc2ccc(C(F)(F)F)c(Cl)c2)NC(=O)CN(C)C(=O)[C@@H]1Cc1ccc(F)cc1 [PP0219] ([NMeL]I[NMeA][Aze][X10][Sar][hPhe(3-Cl-4-CF3)]P[Ac5c][NMeGly(cPent)][NMeD]-Morpholide; lactam N-11) | C (A compound having a KD ratio of 0.1 or more and less than 3 is denoted as C) | B (a compound having 3 or more and less than 10 is denoted as B) |
| CC[C@H](C)[C@@H]1NC(=O)[C@H](CC(C)C)N(C)C(=O)C[C@@H](C(=O)N2CCOCC2)N(C)C(=O)[C@H](C2CCCC2)N(C)C(=O)C2(CC2)NC(=O)[C@@H]2CCCN2C(=O)[C@H](CCc2ccc(C(F)(F)F)c(Cl)c2)NC(=O)CN(C)C(=O)[C@H](Cc2ccc(C(F)(F)F)cc2)N(CC)C(=O)[C@@H]2CCN2C(=O)[C@H](C)N(C)C1=O [PP0220] ([NMeL]I[NMeA][Aze][NEtPhe(4-CF3)][Sar][hPhe(3-Cl-4-CF3)]P[Ac3c][NMeGly(cPent)][NMeD]-Morpholide; lactam N-11) | C (A compound having a KD ratio of 0.1 or more and less than 3 is denoted as C) | C (A compound having a KD ratio of 0.1 or more and less than 3 is denoted as C) |
| CC[C@H](C)[C@@H]1NC(=O)[C@H](CC(C)C)N(C)C(=O)C[C@@H](C(=O)N2CCOCC2)N(C)C(=O)[C@H](C2CCCC2)N(C)C(=O)C(C)(C)NC(=O)[C@@H]2CCCN2C(=O)[C@H](CCc2ccc(C(F)(F)F)c(Cl)c2)NC(=O)CN(C)C(=O)[C@H](Cc2ccc(C(F)(F)F)cc2)N(CC)C(=O)[C@@H]2CCN2C(=O)[C@H](C)N(C)C1=O [PP0221] ([NMeL]I[NMeA][Aze][NEtPhe(4-CF3)][Sar][hPhe(3-Cl-4-CF3)]P[Aib][NMeGly(cPent)][NMeD]-Morpholide; lactam N-11) | C (A compound having a KD ratio of 0.1 or more and less than 3 is denoted as C) | C (A compound having a KD ratio of 0.1 or more and less than 3 is denoted as C) |
| CC[C@H](C)[C@@H]1NC(=O)[C@H](CC(C)C)N(C)C(=O)C[C@@H](C(=O)N2CCOCC2)N(C)C(=O)[C@H](C2CCCC2)N(C)C(=O)C2(CCCCC2)NC(=O)[C@@H]2CCCN2C(=O)[C@H](CCc2ccc(C(F)(F)F)c(Cl)c2)NC(=O)CN(C)C(=O)[C@H](Cc2ccc(C(F)(F)F)cc2)N(CC)C(=O)[C@@H]2CCN2C(=O)[C@H](C)N(C)C1=O [PP0222] ([NMeL]I[NMeA][Aze][NEtPhe(4-CF3)][Sar][hPhe(3-Cl-4-CF3)]P[Ac6c][NMeGly(cPent)][NMeD]-Morpholide; lactam N-11) | C (A compound having a KD ratio of 0.1 or more and less than 3 is denoted as C) | C (A compound having a KD ratio of 0.1 or more and less than 3 is denoted as C) |
| CC[C@H](C)[C@@H]1NC(=O)[C@H](CC(C)C)N(C)C(=O)C[C@@H](C(=O)N2CCOCC2)N(C)C(=O)[C@H](C2CCCC2)N(C)C(=O)C2(CCCC2)NC(=O)[C@@H]2CCCN2C(=O)[C@H](CCc2ccc(Cl)c(Cl)c2)NC(=O)CN(C)C(=O)[C@H](Cc2ccc(C(F)(F)F)cc2)N(CC)C(=O)[C@@H]2CCN2C(=O)[C@H](C)N(C)C1=O [PP0223] ([NMeL]I[NMeA][Aze][NEtPhe(4-CF3)][Sar][hPhe(3,4-Cl2)]P[Ac5c][NMeGly(cPent)][NMeD]-Morpholide; lactam N-11) | C (A compound having a KD ratio of 0.1 or more and less than 3 is denoted as C) | C (A compound having a KD ratio of 0.1 or more and less than 3 is denoted as C) |
| CCCN1C(=O)[C@@H]2CCN2C(=O)[C@H](C)N(C)C(=O)[C@H]([C@@H](C)CC)NC(=O)[C@H](CC(C)C)N(C)C(=O)C[C@@H](C(=O)N2CCOCC2)N(C)C(=O)[C@H](C2CCCC2)N(C)C(=O)C2(CC2)NC(=O)[C@@H]2CCCN2C(=O)[C@H](CCc2ccc(C(F)(F)F)c(Cl)c2)NC(=O)CN(C)C(=O)[C@@H]1Cc1ccc(C(F)(F)F)cc1 [PP0224] ([NMeL]I[NMeA][Aze][NPrPhe(4-CF3)][Sar][hPhe(3-Cl-4-CF3)]P[Ac3c][NMeGly(cPent)][NMeD]-Morpholide; lactam N-11) | C (A compound having a KD ratio of 0.1 or more and less than 3 is denoted as C) | B (a compound having 3 or more and less than 10 is denoted as B) |

Reference: patent US20250230193A1, “CYCLIC COMPOUND HAVING SELECTIVE KRAS INHIBITORY EFFECT ON HRAS AND NRAS” (CHUGAI SEIYAKU KABUSHIKI KAISHA, priority 2022, published 2025)
